In brackets after ≈: the same amount, converted by molar mass.
How the values were obtained:
Format in all cases: cell-based
[1] = system: Micrococcus luteus DSM-1790; assay: Susceptibility testing, MIC microdilution; conditions: Micrococcus luteus DSM-1790
Description: (§1) Bacterial wildtype strains used in susceptibility assays were either part of our strain collection or purchased from the German Collection of Microorganisms and Cell Cultures (DSMZ) or from the American Type Culture Collection (ATCC). E. coli strain WT^[6] and E. coli mutants were kindly provided by Prof. Dr. P. Heisig, Pharmaceutical Biology and Microbiology, University of Hamburg.
(§2) MIC values were determined in microdilution assays. Overnight cultures were diluted in the appropriate growth medium to achieve an inoculum of 10^4-10^6 cfu/mL. Yeasts were grown in Myc medium (1% phytone peptone, 1% glucose, 50 mM HEPES, pH 7.0), S. pneumonia and E. faecalis in tryptic soy broth (TSB: 1.7% peptone casein, 0.3% peptone soymeal, 0.25% glucose, 0.5% NaCl, 0.25% K2HPO4; pH 7.3); M. smegmatis in Middlebrook 7H9 medium supplemented with 10% Middlebrook ADC enrichment and 2 ml/l glycerol). All other listed bacteria were grown in Müller-Hinton broth (0.2% beef infusion solids, 1.75% casein hydrolysate, 0.15% starch, pH 7.4). Cystobactamides and reference drugs were added directly to the cultures in sterile 96-well plates as duplicates and serial dilutions were prepared. Microorganisms were grown on a microplate shaker (750 rpm, 30-37° C., 18-48 h), except S. pneumonia, which was grown at non-shaking conditions (37° C., 5% CO2, 18 h). Growth inhibition was assessed by visual inspection and the MIC was defined as the lowest concentration of compound that inhibited visible growth.

[2] = system: Escherichia coli DSM-26863 (tolC3); assay: Susceptibility testing, MIC microdilution; conditions: Escherichia coli DSM-26863 (tolC3)
Description: as §1, §2

[3] = system: Klebsiella pneumoniae DSM-30104; assay: Susceptibility testing, MIC microdilution; conditions: Klebsiella pneumoniae DSM-30104
Description: as §1, §2

[4] = system: Escherichia coli DSM-12242 (NAL^R); assay: Susceptibility testing, MIC microdilution; conditions: Escherichia coli DSM-12242 (NAL^R)
Description: as §1, §2

Pichia anomala DSM-6766 = assay: Susceptibility testing, MIC microdilution; conditions: Pichia anomala DSM-6766
Description: as §1, §2

[5] = system: Candida albicans DSM-1665; assay: Susceptibility testing, MIC microdilution; conditions: Candida albicans DSM-1665
Description: as §1, §2

[6] = system: Mycobacterium smegmatis mc^2155 ATCC700084; assay: Susceptibility testing, MIC microdilution; conditions: Mycobacterium smegmatis mc^2155 ATCC700084
Description: as §1, §2

[7] = system: Chromobacterium violaceum DSM-30191; assay: Susceptibility testing, MIC microdilution; conditions: Chromobacterium violaceum DSM-30191
Description: as §1, §2

[8] = system: Enterococcus faecalis ATCC29212; assay: Susceptibility testing, MIC microdilution
Description: as §1, §2

[9] = system: Escherichia coli ATCC25922; assay: Susceptibility testing, MIC microdilution
Description: as §1, §2

[10] = system: Pseudomonas aeruginosa ATCC27853; assay: Susceptibility testing, MIC microdilution
Description: as §1, §2

[11] = system: Escherichia coli ATCC35218; assay: Susceptibility testing, MIC microdilution
Description: as §1, §2

[12] = system: Enterobacter aerogenes DSM-30053; assay: Susceptibility testing, MIC microdilution; conditions: Enterobacter aerogenes DSM-30053
Description: as §1, §2

[13] = system: Burkholderia cenocepacia DSM-16553; assay: Susceptibility testing, MIC microdilution; conditions: Burkholderia cenocepacia DSM-16553
Description: as §1, §2

Bacillus subtilis DSM-10 = assay: Susceptibility testing, MIC microdilution; conditions: Bacillus subtilis DSM-10
Description: as §1, §2

[14] = system: Escherichia coli DSM-1116; assay: Susceptibility testing, MIC microdilution; conditions: Escherichia coli DSM-1116
Description: as §1, §2

[15] = system: Acinetobacter baumannii DSM-30008; assay: Susceptibility testing, MIC microdilution; conditions: Acinetobacter baumannii DSM-30008
Description: as §1, §2

[16] = system: Staphylococcus aureus ATCC29213; assay: Susceptibility testing, MIC microdilution
Description: as §1, §2

[17] = system: Streptococcus pneumoniae DSM-20566; assay: Susceptibility testing, MIC microdilution; conditions: Streptococcus pneumoniae DSM-20566
Description: as §1, §2

[18] = system: E. coli strain WT-3 (combination of both gyrA mutations); conditions: Escherichia coli WT-3 [gyrA(S83L, D87G)]
Source text: (§3) Cystobactamides were screened using a panel of E. coli strains with typical mutations in gyrA and parC genes (Table 11).
as §1
as §2, with “Cystobactamides and reference drugs were added directly to the cultures in sterile 96-well plates as duplicates and serial dilutions were prepared. Microorganisms were grown on a microplate shaker (750 rpm, 30-37° C., 18-48 h), except S. pneumonia, which was grown at non-shaking conditions (37° C., 5% CO2, 18 h).” left out

[19] = system: Escherichia coli MI-4 [gyrA(S83L), parC(S801)]; assay: Susceptibility of mutant E. coli strains, MIC
Source text: as §3

[20] = system: E. coli strain WT III (marR Δ74 bp); assay: Susceptibility of mutant E. coli strains, MIC
Description: as §1, §2

E. coli WT = assay: Susceptibility of mutant E. coli strains, MIC; conditions: Escherichia coli WT
Source text: as §3
High-level quinolone resistance often results from a combination of several target site mutations and altered efflux mechanisms. […] This, in turn, leads to overproduction of MarA and AcrAB and overexpression of the AcrAB efflux pump is associated with the MAR (multiple antibiotic resistance) phenotype.^[5]
as §1, §2

[21] = system: E. coli strain WT-4 M2.1 (parC mutation); assay: Susceptibility of mutant E. coli strains, MIC; conditions: Escherichia coli WT-4 M2.1 [parC(S801)]
Source text: as §3, §1, §2

[22] = system: E. coli strain WT-3.2 (single-step gyrA mutation); assay: Susceptibility of mutant E. coli strains, MIC; conditions: Escherichia coli WT-3.2 [gyrA(D87G)]
Source text: as §3, §1, §2

[23] = system: E. coli strain MI (single-step gyrA mutation); assay: Susceptibility of mutant E. coli strains, MIC; conditions: Escherichia coli MI [gyrA(S83L)]
Source text: as §3, §1, §2

[24] = system: several microorganisms and cell lines; assay: Biological evaluation, summary statements over the MIC and cytotoxicity tests
Description: (§4) Cells were seeded at 6×10^3 cells per well of 96-well plates (Corning CellBind®) in complete medium (180 μl) and directly treated with cystobactamides dissolved in methanol in a serial dilution. Compound were tested in duplicate for 5 d, as well as the internal solvent control. After 5 d incubation, 5 mg/ml MTT in PBS (20 μL) was added per well and it was further incubated for 2 h at 37° C.[7] The medium was then discarded and cells were washed with PBS (100 μl) before adding 2-propanol/10N HCl (250:1, v/v; 100 μl) in order to dissolve formazan granules. The absorbance at 570 nm was measured using a microplate reader (EL808, Bio-Tek Instruments Inc.).
as §2

[25] = system: Human HCT-116 colon carcinoma cells
Description: (§5) Human HCT-116 colon carcinoma cells (CCL-247) were obtained from the American Type Culture Collection (ATCC) and Chinese hamster ovary CHO-K1 cells (ACC-110) were obtained from the German Collection of Microorganisms and Cell Cultures (DSMZ). Both cell lines were cultured under the conditions recommended by the respective depositor. Primary HUVEC (human umbilical vein endothelial cells; single donor) were purchased from PromoCell (Heidelberg, Germany) and cultured in Endothelial Cell Growth Medium (PromoCell) containing the following supplements: 2% FCS, 0.4% ECGS, 0.1 ng/ml EGF, 1 ng/ml bFGF, 90 μg/ml heparin, 1 μg/ml hydrocortisone.
as §4

[26] = system: Primary HUVEC (human umbilical vein endothelial cells)
Description: as §5, §4

Question: COC(C(=O)Nc1ccc(C(=O)Nc2ccc(C(=O)Nc3ccc(C(=O)O)cc3OC(C)C)c(O)c2OC(C)C)cc1)C(NC(=O)c1ccc(NC(=O)c2ccc([N+](=O)[O-])cc2)cc1)C(=O)O (stereo not shown) [cystobactamide B] was tested. Which MIC [1] did it give?
Answer: 0.23 µg/mL (≈ 0.25 µM)

Question: What about the MIC [2] of the same molecule?
Answer: 1.8 µg/mL (≈ 1.95 µM)

Question: What about the MIC [3] of the same molecule?
Answer: >59 µg/mL

Question: What about the MIC [4] of the same molecule?
Answer: 3.7 µg/mL (≈ 4.02 µM)

Question: What about the MIC (Pichia anomala DSM-6766) of the same molecule?
Answer: >59 µg/mL

Question: And the MIC [5]?
Answer: >59 µg/mL

Question: What about the MIC [6] of the same molecule?
Answer: >59 µg/mL

Question: And the MIC [7]?
Answer: 14.7 µg/mL (≈ 16 µM)

Question: What about the MIC [8] of the same molecule?
Answer: 0.23 µg/mL (≈ 0.25 µM)

Question: And the MIC [9]?
Answer: 0.9 µg/mL (≈ 0.977 µM)

Question: And the MIC [10]?
Answer: 14.7 µg/mL (≈ 16 µM)

Question: And the MIC [11]?
Answer: 1.8 µg/mL (≈ 1.95 µM)

Question: And the MIC [12]?
Answer: >59 µg/mL

Question: And the MIC [13]?
Answer: >59 µg/mL

Question: And the MIC (Bacillus subtilis DSM-10)?
Answer: 0.46 µg/mL (≈ 0.5 µM)

Question: And the MIC [14]?
Answer: 1.8 µg/mL (≈ 1.95 µM)

Question: What about the MIC [15] of the same molecule?
Answer: 3.7 µg/mL (≈ 4.02 µM)

Question: And the MIC [16]?
Answer: 0.12 µg/mL (≈ 0.13 µM)

Question: And the MIC [17]?
Answer: 0.46 µg/mL (≈ 0.5 µM)

Question: And the MIC [18]?
Answer: 7.4 µg/mL (≈ 8.04 µM)

Question: What about the MIC [19] of the same molecule?
Answer: 1.8 µg/mL (≈ 1.95 µM)

Question: What about the “MIC, in words” value ([20]; E. coli WT III) of the same molecule?
Answer: in the μg/ml range

Question: What about the MIC ([20]; Escherichia coli WTIII [marRΔ74bp]) of the same molecule?
Answer: 3.7 µg/mL (≈ 4.02 µM)

Question: What about the MIC (E. coli WT) of the same molecule?
Answer: 1.8 µg/mL

Question: And the MIC [21]?
Answer: 1.8 µg/mL (≈ 1.95 µM)

Question: And the MIC [22]?
Answer: 3.7 µg/mL (≈ 4.02 µM)

Question: And the MIC [23]?
Answer: 3.7 µg/mL (≈ 4.02 µM)

Question: What about the “inhibition of pathogenic Gram-negative strains A. baumannii and P. aeruginosa (MIC range)” value ([24]; A. baumannii and P. aeruginosa) of the same molecule?
Answer: low μg/ml range

Question: And the “average potency on Gram-positive bacteria compared with ciprofloxacin” value ([24]; E. faecalis, S. aureus, S. pneumonia, average MIC)?
Answer: exceeded that of ciprofloxacin

Question: And the GI50 [25]?
Answer: > 50 µM

Question: What about the GI50 [26] of the same molecule?
Answer: > 50 µM
